# Experimental data: publication PMC8296573, “Synthesis and Biological Evaluation of Fingolimod Derivatives as Antibacterial Agents” (ACS Omega, 2021)
# Legend:
# [1] = system: A549; assay: Cytotoxicity, resazurin staining assay; assay type: cell-based, human; conditions: 24 h incubation
# Procedure: (§1) The cytotoxicity of the compounds was assessed on the three different human cell lines, A549, HEp-2, and HL-60, using the redox-based resazurin staining assay. The cells were seeded in clear 96-well plates at a density of 1 × 10^4 cells per well in a volume of 200 μL per well. The adherent cells were let to attach for 24 h before changing the media and adding the compounds (final concentration of 0.25% DMSO). HL-60 were counted and added to the plates at a density of 1 × 10^4 cells per well in a volume of 200 μL directly with the compounds. Untreated cells were used as negative controls, and cells treated with 1% TritonX-100 (Sigma-Aldrich, St. Louis, MO) were used as positive controls for cytotoxicity. The cells were incubated with the compounds for 24 h.
# (§2) For the resazurin assay, the media was first removed, and the adherent cells were washed once with PBS. Then, 200 μL of 20 μM resazurin was added per well and cells were incubated for two more hours before the measurement of fluorescence, as mentioned earlier. For HL-60, 10 μL of 400 μM resazurin was added directly to the wells and the cells were incubated for an additional 4 h before the measurement of fluorescence.
# [2] = system: HEp-2; assay: Cytotoxicity, resazurin staining assay; assay type: cell-based, human; conditions: 24 h incubation
# Procedure: as §1, §2
# [3] = system: HL-60; assay: Cytotoxicity, resazurin staining assay; assay type: cell-based, human; conditions: 24 h incubation
# Procedure: as §1, §2
# [4] = system: C. violaceum ATCC 31532 (wild type); assay: Quorum sensing inhibition assay (violacein) with parallel resazurin viability; assay type: cell-based, Chromobacterium violaceum; conditions: wild-type strain
# Procedure: (§3) The QS inhibitory activity of the compounds was assessed as described previously.[31],[47] Briefly, two QS reporter strains, C. violaceum ATCC 31532 and the violacein-negative, mini-Tn5 mutant of C. violaceum CV026 (NCTC 13278), were grown on LBA (for CV026, the agar was supplemented with kanamycin at 100 μg mL^–1) overnight at 27 °C. Colonies were suspended in PDYT (0.5% peptone, 0.3% D-glucose, 0.25% yeast extract, 0.05% L-tryptophan, w/v) to reach an OD600 of 0.02. The CV026 culture was supplemented with C6-HSL (N-hexanoyl-L-homoserine lactone) (10007896, Cayman Chemical, MI) at 0.5 μM to induce the QS-moderated synthesis of violacein. For each strain, 200 μL of bacterial culture was added per well in two identical 96-well plates containing the compounds (2 μL per well for a final DMSO concentration of 1%). In each 96-well plate, untreated cells were used as negative controls and quercetin (Q4951, Sigma-Aldrich) and azithromycin (PZ0007, Sigma-Aldrich) were included as positive controls for QS inhibition and cell viability (bactericidal activity), respectively. The plates were incubated at 27 °C under aerobic conditions (200 rpm) for 22 h.
# (§4) The synthesized and nonsoluble violacein was collected from the first 96-well plate by centrifugation (4000 rpm, for 15 min, 20 °C), and the supernatants were removed. Violacein was dissolved in 100 μL per well of 96% (v/v) ethanol and was separated from cells by centrifugation as described above. The supernatant containing violacein was then transferred to a new 96-well plate, and the absorbance was measured at 595 nm using a Multiskan Sky Microplate spectrophotometer. To detect any bactericidal effects, the viability of the cells was measured in the second replica plate by adding 10 μL of 400 μM resazurin in each well and incubating the plate for 30 min in the dark at 27 °C (220 rpm). After centrifugation of the plate to separate the cells from the solution, 100 μL of each well were transferred into a new 96-well plate and the fluorescence was recorded as described above using the Varioskan LUX multimode plate reader.
# [5] = system: C. violaceum CV026 (AHL-deficient mutant); assay: as above; assay type: cell-based, Chromobacterium violaceum; conditions: mutant strain
# Procedure: as §3, §4
# [6] = system: S. aureus ATCC 25923; assay: S. aureus attachment on LDPE tubes, alone or in coculture with differentiated HL-60 cells; assay type: cell-based, Staphylococcus aureus; conditions: 25 μM, 24 h
# Procedure: The coculture system was as previously described.[40] Briefly, the bacteria were prepared as described above and the concentration was adjusted to 2 × 10^7 CFU mL^–1 in RPMI 1640. The media of the differentiated HL-60 cells was refreshed with RPMI 1640 24 h before the experiments to remove possible traces of antibiotics. On the day of the experiment, the cells were counted and adjusted to a concentration of 2 × 10^5 cells mL^–1 in RPMI 1640. Each suspension (bacterial and differentiated HL-60 cells, 500 μL of each) was added on 1-cm-long sections of a sterilized fine bore LDPE tubing (Smiths Medical ASD, Minneapolis, MN) in 24-well plates (Nunclon Δ surface, Nunc, Roskilde, Denmark). Fingolimod was also added to the wells at a concentration of 25 μM (0.25% DMSO). Coculture controls with no added compound were included, as well as bacterial controls without differentiated HL-60 cells with and without fingolimod. The plates were incubated for 24 h in the same conditions as for cell maintenance. Then, the LDPE tubes were gently washed with TSB to remove adhering planktonic cells and transferred to Eppendorf tubes containing 1 mL of 0.5% (w/v) Tween 20-TSB solution. Next, the tubes were sonicated in a water bath sonicator (Branson Ultrasonics, Danbury, CT) for 5 min at 35 kHz. The tubes were vortexed for 20 s prior to and after the sonication step. […]
# [7] = system: S. aureus ATCC 25923; design: method as in PMID 33233348; conditions: previously found; cited from earlier work
# [8] = system: A. baumannii NCTC 13423; design: method as in PMID 33233348; conditions: previously reported; cited from earlier work
compound,measurement,setting,value
"2-Amino-2-(4-decylbenzyl)propane-1,3-diol [Compound 45]",CC50,[1],27.4 ± 15.1 µM
same,CC50,[2],> 40 µM
same,CC50,[3],3.2 ± 1 µM
"CCCCCCCCCCc1ccc(CCC(N)(CO)CO)nc1 [Compound 62, 2-Amino-2-[2-(5-decylpyridin-2-yl)ethyl]propane-1,3-diol]",QSI activity compared with fingolimod,[4],significantly worse than fingolimod
"CCCCCCCCc1ccc2cc(CC(N)(CO)CO)ccc2c1 [Compound 79, 2-Amino-2-[(6-octylnaphthalen-2-yl)methyl]propane-1,3-diol]",QSI activity compared with fingolimod,[4],significantly lower QSI activity than fingolimod
same,QSI activity compared with fingolimod,[5],significantly lower QSI activity than fingolimod
"CCCCCCCCc1ccc2ccc(CC(N)(CO)CO)nc2c1 [Compound 82, 2-Amino-2-[(7-octylquinolin-2-yl)methyl]propane-1,3-diol]",QSI activity compared with fingolimod,[5],significantly better QSI activity
"CCCCCCCCc1ccc(CCC(N)(CO)CO)cc1 [fingolimod, Fingolimod]",Bacterial attachment on LDPE tubes,"[6]; in combination with HL-60 cells, vs coculture control (p = 0.042)",significant reduction
same,Numbers of attached viable S. aureus on LDPE tubes,"[6]; in the absence of HL-60 cells, vs monoculture control (p = 0.013)",significantly reduced
same,"MIC in pre-exposure, S. aureus",[7],15 µM
same,MIC A. baumannii,[8],25 µM
